# Data published in article PMC2580030 (PLoS ONE, 2008).
# Biological target: T1, HLA-DR1 (Homo sapiens, UniProt P01903+P01911, A100R/D57E/F55L/F60I/F76Y/I96L/L162R/M171V/P40L/Q125E/R42F/V115G/Y59C)
# T1 construct: made in house; host or cells: stably transfected Drosophila S2 insect cell lines (DR1 and DM separately)
# Format: binding
sequence,measurement,value
"PVSKMRMATPLLMQA [CLIP, residues 87–101 of the CLIP peptide]",largest CLIP/DR1 complex dissociation measured,~55%
same,t 1/2 of CLIP dissociation from DR1,approximately 80 min
